Laboratory results published in patent publication US20230085307A1, “PYRIDAZINONE COMPOUND AND HERBICIDE” (NISSAN CHEMICAL CORPORATION, priority 2019, published 2023).

Key:
Italian ryegrass [1] = assay: Test Example 5: herbicidal effect by foliage application, plastic box (Table 20, symbol K); type: in vivo, Italian ryegrass (Lolium multiflorum); settings: foliage application, AAH 320 g/ha, three weeks after application
In short: (§1)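 Foliar spray test: emulsion formulation diluted in water to a set application rate, sprayed onto 14-day-old plants raised in diluvial soil at 25° C to 30° C under glass. Both herbicidal effect and crop effect rated visually three weeks later.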

redroot pigweed [2] = assay: Test Example 4: herbicidal effect by soil treatment (Table 19, symbol N); type: in vivo, redroot pigweed (Amaranthus retroflexus); settings: AAH 320 g/ha
In short: (§2)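 Step 1: sow seeds in sterilized diluvial soil, cover ~1.5 cm. Step 2: spray diluted emulsion onto soil surface at predetermined rate. Step 3: greenhouse, 25–30° C, three weeks. Step 4: grade effect on each plant by earlier criteria.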

windgrass [3] = assay: Test Example 5: herbicidal effect by foliage application, plastic box (Table 20, symbol L); type: in vivo, windgrass (Apera spica-venti); settings: foliage application, AAH 320 g/ha, three weeks after application
In short: as §1

velvetleaf [4] = assay: Test Example 5: herbicidal effect by foliage application, plastic box (Table 20, symbol M); type: in vivo, velvetleaf (Abutilon theophrasti); settings: foliage application, AAH 320 g/ha, three weeks after application
In short: as §1

green foxtail [5] = assay: Test Example 4: herbicidal effect by soil treatment (Table 19, symbol G); type: in vivo, green foxtail (Setaria viridis); settings: AAH 320 g/ha
In short: as §2

barnyard grass [6] = assay: Test Example 5: herbicidal effect by foliage application, plastic box (Table 20, symbol H); type: in vivo, barnyard grass (Echinochloa crus-galli); settings: foliage application, AAH 320 g/ha, three weeks after application
In short: as §1

barnyard grass [7] = assay: Test Example 3: herbicidal effect by foliage application, Wagner pot (Table 18, symbol H); type: in vivo, barnyard grass (Echinochloa crus-galli); settings: 320 g/ha
In short: (§3)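 Plants were sown in alluvial soil held under 0.1–0.5 cm standing water and grown 14 days in a greenhouse at 25–30 °C. An emulsifiable formulation, water-diluted to the set dose, was then sprayed onto the foliage, and effects were scored three weeks later using previously defined criteria.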

barnyard grass [8] = assay: Test Example 4: herbicidal effect by soil treatment (Table 19, symbol H); type: in vivo, barnyard grass (Echinochloa crus-galli); settings: AAH 320 g/ha
In short: as §2

persian speedwell [9] = assay: Test Example 4: herbicidal effect by soil treatment (Table 19, symbol R); type: in vivo, Persian speedwell (Veronica persica); settings: AAH 320 g/ha
In short: as §2

green foxtail [10] = assay: Test Example 5: herbicidal effect by foliage application, plastic box (Table 20, symbol G); type: in vivo, green foxtail (Setaria viridis); settings: foliage application, AAH 320 g/ha, three weeks after application
In short: as §1

blackgrass [11] = assay: Test Example 5: herbicidal effect by foliage application, plastic box (Table 20, symbol J); type: in vivo, blackgrass (Alopecurus myosuroides); settings: foliage application, AAH 320 g/ha, three weeks after application
In short: as §1

lambsquarters [12] = assay: Test Example 5: herbicidal effect by foliage application, plastic box (Table 20, symbol O); type: in vivo, lambsquarters (Chenopodium album); settings: foliage application, AAH 320 g/ha, three weeks after application
In short: as §1

redroot pigweed [13] = assay: Test Example 5: herbicidal effect by foliage application, plastic box (Table 20, symbol N); type: in vivo, redroot pigweed (Amaranthus retroflexus); settings: foliage application, AAH 320 g/ha, three weeks after application
In short: as §1

wild oat [14] = assay: Test Example 4: herbicidal effect by soil treatment (Table 19, symbol I); type: in vivo, wild oat (Avena fatua); settings: AAH 320 g/ha
In short: as §2

persian speedwell [15] = assay: Test Example 5: herbicidal effect by foliage application, plastic box (Table 20, symbol R); type: in vivo, Persian speedwell (Veronica persica); settings: foliage application, AAH 320 g/ha, three weeks after application
In short: as §1

southern crabgrass [16] = assay: Test Example 4: herbicidal effect by soil treatment (Table 19, symbol F); type: in vivo, southern crabgrass (Digitaria ciliaris); settings: AAH 320 g/ha
In short: as §2

chickweed [17] = assay: Test Example 5: herbicidal effect by foliage application, plastic box (Table 20, symbol P); type: in vivo, common chickweed (Stellaria media); settings: foliage application, AAH 320 g/ha, three weeks after application
In short: as §1

windgrass [18] = assay: Test Example 4: herbicidal effect by soil treatment (Table 19, symbol L); type: in vivo, windgrass (Apera spica-venti); settings: AAH 320 g/ha
In short: as §2

rice flat sedge = assay: Test Example 3: herbicidal effect by foliage application, Wagner pot (Table 18, symbol E); type: in vivo, rice flat sedge (Cyperus iria); settings: 320 g/ha
In short: as §3

blackgrass [19] = assay: Test Example 4: herbicidal effect by soil treatment (Table 19, symbol J); type: in vivo, blackgrass (Alopecurus myosuroides); settings: AAH 320 g/ha
In short: as §2

chickweed [20] = assay: Test Example 4: herbicidal effect by soil treatment (Table 19, symbol P); type: in vivo, common chickweed (Stellaria media); settings: AAH 320 g/ha
In short: as §2

lambsquarters [21] = assay: Test Example 4: herbicidal effect by soil treatment (Table 19, symbol O); type: in vivo, lambsquarters (Chenopodium album); settings: AAH 320 g/ha
In short: as §2

Chinese sprangletop = assay: Test Example 3: herbicidal effect by foliage application, Wagner pot (Table 18, symbol D); type: in vivo, chinese sprangletop (Leptochloa chinensis); settings: 320 g/ha
In short: as §3

Italian ryegrass [22] = assay: Test Example 4: herbicidal effect by soil treatment (Table 19, symbol K); type: in vivo, Italian ryegrass (Lolium multiflorum); settings: AAH 320 g/ha
In short: as §2

velvetleaf [23] = assay: Test Example 4: herbicidal effect by soil treatment (Table 19, symbol M); type: in vivo, velvetleaf (Abutilon theophrasti); settings: AAH 320 g/ha
In short: as §2

wild oat [24] = assay: Test Example 5: herbicidal effect by foliage application, plastic box (Table 20, symbol I); type: in vivo, wild oat (Avena fatua); settings: foliage application, AAH 320 g/ha, three weeks after application
In short: as §1

southern crabgrass [25] = assay: Test Example 5: herbicidal effect by foliage application, plastic box (Table 20, symbol F); type: in vivo, southern crabgrass (Digitaria ciliaris); settings: foliage application, AAH 320 g/ha, three weeks after application
In short: as §1

CCCC(=O)Oc1c(C)nn(C)c(=O)c1-c1c(-c2cccc(C#N)c2)sc2ccccc12 [1-124]
K: Italian ryegrass, herbicidal effect (Italian ryegrass [1]): 0 (Herbicidal rate of 5% or less (almost no effect)) | N: redroot pigweed, herbicidal effect rating (redroot pigweed [2]): 0 (Herbicidal rate of 5% or less (almost no effect)) | L: windgrass, herbicidal effect (windgrass [3]): 0 (Herbicidal rate of 5% or less (almost no effect)) | M: velvetleaf, herbicidal effect (velvetleaf [4]): 3 (Herbicidal rate of 40% or more and less than 70%) | G: green foxtail, herbicidal effect rating (green foxtail [5]): 0 (Herbicidal rate of 5% or less (almost no effect)) | H: barnyard grass, herbicidal effect (barnyard grass [6]): 0 (Herbicidal rate of 5% or less (almost no effect)) | herbicidal effect on H (barnyard grass), rating 0-5 (barnyard grass [7]): 0 (Herbicidal rate of 5% or less (almost no effect)) | H: barnyard grass, herbicidal effect rating (barnyard grass [8]): 0 (Herbicidal rate of 5% or less (almost no effect)) | R: persian speedwell, herbicidal effect rating (persian speedwell [9]): 0 (Herbicidal rate of 5% or less (almost no effect)) | G: green foxtail, herbicidal effect (green foxtail [10]): 0 (Herbicidal rate of 5% or less (almost no effect)) | J: blackgrass, herbicidal effect (blackgrass [11]): 0 (Herbicidal rate of 5% or less (almost no effect)) | O: lambsquarters, herbicidal effect (lambsquarters [12]): 3 (Herbicidal rate of 40% or more and less than 70%) | N: redroot pigweed, herbicidal effect (redroot pigweed [13]): 4 (Herbicidal rate of 70% or more and less than 90%) | I: wild oat, herbicidal effect rating (wild oat [14]): 0 (Herbicidal rate of 5% or less (almost no effect)) | R: persian speedwell, herbicidal effect (persian speedwell [15]): 1 (Herbicidal rate of 5% or more and less than 20%) | F: southern crabgrass, herbicidal effect rating (southern crabgrass [16]): 0 (Herbicidal rate of 5% or less (almost no effect)) | P: chickweed, herbicidal effect (chickweed [17]): 0 (Herbicidal rate of 5% or less (almost no effect)) | L: windgrass, herbicidal effect rating (windgrass [18]): 0 (Herbicidal rate of 5% or less (almost no effect)) | herbicidal effect on E (rice flat sedge), rating 0-5 (rice flat sedge): 3 (Herbicidal rate of 40% or more and less than 70%) | J: blackgrass, herbicidal effect rating (blackgrass [19]): 0 (Herbicidal rate of 5% or less (almost no effect)) | P: chickweed, herbicidal effect rating (chickweed [20]): 3 (Herbicidal rate of 40% or more and less than 70%) | O: lambsquarters, herbicidal effect rating (lambsquarters [21]): 0 (Herbicidal rate of 5% or less (almost no effect)) | herbicidal effect on D (Chinese sprangletop), rating 0-5 (Chinese sprangletop): 2 (Herbicidal rate of 20% or more and less than 40%) | K: Italian ryegrass, herbicidal effect rating (Italian ryegrass [22]): 0 (Herbicidal rate of 5% or less (almost no effect)) | M: velvetleaf, herbicidal effect rating (velvetleaf [23]): 0 (Herbicidal rate of 5% or less (almost no effect)) | I: wild oat, herbicidal effect (wild oat [24]): 0 (Herbicidal rate of 5% or less (almost no effect)) | F: southern crabgrass, herbicidal effect (southern crabgrass [25]): 0 (Herbicidal rate of 5% or less (almost no effect))
